According to US7074785B2, “Δ1-pyrrolines used as pesticides” (Bayer Cropscience AG, priority 2001, dated 2006):
Where two headings read alike, the source gives them in different places.

Legend:
[1] = tested on: army worm (Spodoptera frugiperda) caterpillars; assay: Spodoptera frugiperda test; assay type: in vivo; conditions: in Brassica oleracea, 168 h
[2] = tested on: greenhouse red spider mite (Tetranychus urticae); assay: Tetranychus test (OP resistant/dip treatment); assay type: in vivo; conditions: 168 h
Protocol: Tetranychus Test (OP Resistant/Dip Treatment)
Solvent: 7 parts by weight of dimethylformamide
After the desired period of time, the effect in % is determined.

[3] = tested on: larvae of the mustard beetle (Phaedon cochleariae); assay: Phaedon larvae test; conditions: in Brassica oleracea, 168 h
[4] = logP determination by HPLC (reversed-phase C18, EEC Directive 79/831 Annex V.A8); assay type: physicochemical
Protocol: The logP values stated in the above tables and Preparation Examples are determined in accordance with EEC Directive 79/831 Annex V.A8 by HPLC (High Performance Liquid Chromatography) using a reversed-phase column (C 18). Temperature: 43° C.
In the acidic range at pH 2.3 the determination takes place using 0.1% aqueous phosphoric acid and acetonitrile as the mobile phases; linear gradient from 10% acetonitrile to 90% acetonitrile. Corresponding results are marked in the tables by “a)”
In the neutral range at pH 7.5 the determination takes place using 0.01 molar aqueous phosphate buffer solution and acetonitrile as the mobile phases; linear gradient from 10% acetonitrile to 90% acetonitrile. Corresponding results are marked in the tables by “b)”
Calibration is carried out using unbranched alkan-2-ones (having 3 to 16 carbon atoms), with known logP values (the logP values determined on the basis of the retention times using linear interpolation between two successive alkanones).

[5] = read-out: Kill rate in % after 7 d, 100 ppm, cabbage leaves dipped, Spodoptera frugiperda
[6] = read-out: Kill rate in % after 7 d, 100 ppm, bean plants dipped, Tetranychus urticae OP-resistant
[7] = read-out: Kill rate in % after 7 d, 100 ppm, cabbage leaves dipped, Phaedon cochleariae larvae
[8] = HPLC, acidic range pH 2.3, 0.1% aqueous phosphoric acid/acetonitrile; marked a), read-out: log P (pH 2.3)
[9] = HPLC, neutral range pH 7.5, 0.01 molar phosphate buffer/acetonitrile; marked b), read-out: log P (pH 7.5)
[10] = 100 ppm, cabbage leaves dipped, read-out: Kill rate in % after 7 d
[11] = 100 ppm, bean plants dipped, Tetranychus urticae OP-resistant, read-out: Kill rate in % after 7 d
[12] = reversed-phase C18 HPLC column; HPLC, acidic range pH 2.3, 0.1% aqueous phosphoric acid/acetonitrile; marked a), read-out: log P (pH 2.3)
[13] = reversed-phase C18 HPLC column; HPLC, neutral range pH 7.5, 0.01 molar phosphate buffer/acetonitrile; marked b), read-out: log P (pH 7.5)
[14] = read-out: Kill rate in % after 7 d

| SMILES | pest or weed control at 100 ppm [1, 5] | pest or weed control at 100 ppm [2, 6] | pest or weed control at 100 ppm [3, 7] | chromatographic logP [4, 8] | chromatographic logP [4, 9] | further results |
| --- | --- | --- | --- | --- | --- | --- |
| COC(=O)Nc1ccc(-c2ccc(C3CCC(c4c(F)cccc4F)=N3)cc2)cc1 (stereo not shown) [Compound 1, methyl 4′-[5-(2,6-difluorophenyl)-3,4-dihydro-2H-pyrrol-2-yl]-1,1′-biphenyl-4-ylcarbamate] | ≥ 95% | ≥ 85% | ≥ 85% | 2.31 | 3.52 |  |
| CCCOC(=O)Nc1ccc(-c2ccc(C3CCC(c4c(F)cccc4F)=N3)cc2)cc1 (stereo not shown) [Compound 2, n-propyl 4′-[5-(2,6-difluorophenyl)-3,4-dihydro-2H-pyrrol-2-yl]-1,1′-biphenyl-4-ylcarbamate] | ≥ 95% | ≥ 85% | ≥ 85% | 3.02 | 4.24 |  |
| CCCCOC(=O)N(C)c1ccc(-c2ccc(C3CCC(c4c(F)cccc4F)=N3)cc2)cc1 (stereo not shown) [Compound 3, n-butyl 4′-[5-(2,6-difluorophenyl)-3,4-dihydro-2H-pyrrol-2-yl]-1,1′-biphenyl-4-yl(methyl)carbamate] |  |  |  | 3.76 | 4.92 |  |
| O=C1OCCN1c1ccc(-c2ccc(C3CCC(c4c(F)cccc4F)=N3)cc2)cc1 (stereo not shown) [Compound 4, 3-{4′-[5-(2,6-difluorophenyl)-3,4-dihydro-2H -pyrrol-2-yl]-1,1′-biphenyl-4-yl}-1,3-oxazolidin-2-one] |  |  |  |  |  | pest or weed control at 100 ppm [1, 10]: ≥ 95%; pest or weed control at 100 ppm [2, 11]: ≥ 85%; chromatographic logP [4, 12]: 2.13; chromatographic logP [4, 13]: 3.28 |
| O=C(Nc1ccc(-c2ccc(C3CCC(c4c(F)cccc4F)=N3)cc2)cc1)N1CCOCC1 (stereo not shown) [Compound 5, N-{4′-[5-(2,6-difluorophenyl)-3,4-dihydro-2H-pyrrol-2-yl]-1,1 ′-biphenyl-4-yl}-4-morpholinecarboxamide] |  |  |  |  |  | pest or weed control at 100 ppm [1, 10]: ≥ 95%; chromatographic logP [4, 12]: 1.87; chromatographic logP [4, 13]: 2.96 |
| CCCCOC(=O)Nc1ccc(-c2ccc(C3CCC(c4c(F)cccc4F)=N3)cc2)cc1 (stereo not shown) [Compound 9] | ≥ 95% |  | 100% | 3.44 | 4.6 |  |
| O=C(Nc1ccc(-c2ccc(C3CCC(c4c(F)cccc4F)=N3)cc2)cc1)OC1CCCCC1 (stereo not shown) [Compound 10] | ≥ 95% |  | 100% | 3.88 | 1.68 |  |
| O=C(Nc1ccc(-c2ccc(C3CCC(c4c(F)cccc4F)=N3)cc2)cc1)N1CCCC1 (stereo not shown) [Compound 11] |  |  |  |  |  | pest or weed control at 100 ppm [3, 14]: 100%; chromatographic logP [4, 12]: 2.11 |
| O=C(Nc1ccc(-c2ccc(C3CCC(c4c(F)cccc4F)=N3)cc2)cc1)N1CCCCC1 (stereo not shown) [Compound 12] |  |  |  |  |  | pest or weed control at 100 ppm [1, 10]: ≥ 95%; pest or weed control at 100 ppm [3, 14]: 100%; chromatographic logP [4, 12]: 2.53; chromatographic logP [4, 13]: 3.71 |
| CCCCN(CC)C(=O)Nc1ccc(-c2ccc(C3CCC(c4c(F)cccc4F)=N3)cc2)cc1 (stereo not shown) [Compound 14] |  |  |  |  |  | pest or weed control at 100 ppm [1, 10]: ≥ 95%; chromatographic logP [4, 12]: 3.18; chromatographic logP [4, 13]: 4.36 |
| CC(C)C(C)OC(=O)Nc1ccc(-c2ccc(C3CCC(c4c(F)cccc4F)=N3)cc2)cc1 (stereo not shown) [Compound 16] |  |  | ≥ 85% | 3.82 | 4.77 |  |
| CCCC(C)OC(=O)Nc1ccc(-c2ccc(C3CCC(c4c(F)cccc4F)=N3)cc2)cc1 (stereo not shown) [Compound 17] | ≥ 95% | ≥ 85% |  |  | 4.82 |  |
| CCCCCOC(=O)Nc1ccc(-c2ccc(C3CCC(c4c(F)cccc4F)=N3)cc2)cc1 (stereo not shown) [Compound 18] | ≥ 95% |  | ≥ 85% | 3.87 | 4.89 |  |
| CCCCCCOC(=O)Nc1ccc(-c2ccc(C3CCC(c4c(F)cccc4F)=N3)cc2)cc1 (stereo not shown) [Compound 19] |  | ≥ 85% | ≥ 85% | 4.46 | 5.26 |  |
| CC(OC(=O)Nc1ccc(-c2ccc(C3CCC(c4c(F)cccc4F)=N3)cc2)cc1)c1ccccc1 (stereo not shown) [Compound 20] | ≥ 95% |  | ≥ 85% | 3.63 |  |  |
| CC(C)CCOC(=O)Nc1ccc(-c2ccc(C3CCC(c4c(F)cccc4F)=N3)cc2)cc1 (stereo not shown) [Compound 21] | ≥ 95% |  | ≥ 85% | 3.72 |  |  |
| O=C(Nc1ccccc1)Nc1ccc(-c2ccc(C3CCC(c4c(F)cccc4F)=N3)cc2)cn1 (stereo not shown) [Compound 22] |  |  |  |  |  | pest or weed control at 100 ppm [1, 10]: ≥ 95%; pest or weed control at 100 ppm [2, 11]: ≥ 85%; chromatographic logP [4, 12]: 2.71; chromatographic logP [4, 13]: 3.98 |
| CC(C)(C)COC(=O)Nc1ccc(-c2ccc(C3CCC(c4c(F)cccc4F)=N3)cc2)cc1 (stereo not shown) [Compound 23] | ≥ 95% | ≥ 85% |  | 3.76 |  |  |

| SMILES | pest or weed control at 100 ppm [1, 5] | pest or weed control at 100 ppm [2, 6] | pest or weed control at 100 ppm [3, 7] | chromatographic logP [4, 8] | chromatographic logP [4, 9] | further results |
| --- | --- | --- | --- | --- | --- | --- |
| CCC(CC)OC(=O)Nc1ccc(-c2ccc(C3CCC(c4c(F)cccc4F)=N3)cc2)cc1 (stereo not shown) [Compound 24] |  | ≥ 85% | ≥ 85% | 3.76 |  |  |
| O=C(Nc1ccc(-c2ccc(C3CCC(c4c(F)cccc4F)=N3)cc2)cc1)OCCc1ccccc1 (stereo not shown) [Compound 25] | ≥ 95% |  | ≥ 85% | 3.62 | 4.64 |  |
| O=C(Nc1ccc(-c2ccc(C3CCC(c4c(F)cccc4F)=N3)cc2)cc1)OCc1ccco1 (stereo not shown) [Compound 26] | ≥ 95% | ≥ 85% |  | 3.01 | 4.1 |  |
| O=C(Nc1ccc(-c2ccc(C3CCC(c4c(F)cccc4F)=N3)cc2)cc1)OCc1cccs1 (stereo not shown) [Compound 27] | ≥ 95% | ≥ 85% | ≥ 85% | 3.28 | 4.36 |  |
| CCCCC(CC)COCCOC(=O)Nc1ccc(-c2ccc(C3CCC(c4c(F)cccc4F)=N3)cc2)cc1 (stereo not shown) [Compound 28] | ≥ 95% | ≥ 85% |  | 5.13 | 5.97 |  |
| CCCN(CCC)CCOC(=O)Nc1ccc(-c2ccc(C3CCC(c4c(F)cccc4F)=N3)cc2)cc1 (stereo not shown) [Compound 29] |  | ≥ 85% | ≥ 85% | 1.74 | 5.52 |  |
| CN(C)CCOC(=O)Nc1ccc(-c2ccc(C3CCC(c4c(F)cccc4F)=N3)cc2)cc1 (stereo not shown) [Compound 30] | ≥ 95% | ≥ 85% |  | 1.37 |  |  |
| COCCOC(=O)Nc1ccc(-c2ccc(C3CCC(c4c(F)cccc4F)=N3)cc2)cc1 (stereo not shown) [Compound 31] | ≥ 95% |  |  | 2.24 | 3.45 |  |
| CCOCCOC(=O)Nc1ccc(-c2ccc(C3CCC(c4c(F)cccc4F)=N3)cc2)cc1 (stereo not shown) [Compound 32] |  | ≥ 85% | ≥ 85% | 2.52 | 3.75 |  |
| O=C(Nc1ccc(-c2ccc(C3CCC(c4c(F)cccc4F)=N3)cc2)cc1)OCCOCCOCCCC(F)(F)C(F)(F)F (stereo not shown) [Compound 34] | ≥ 95% | ≥ 85% |  | 3.7 | 4.73 |  |
| COC(=O)N(C)c1ccc(-c2ccc(C3CCC(c4c(F)cccc4F)=N3)cc2)cc1 (stereo not shown) [Compound 35] |  | ≥ 85% | ≥ 85% | 2.58 | 3.79 |  |
| CCOC(=O)N(C)c1ccc(-c2ccc(C3CCC(c4c(F)cccc4F)=N3)cc2)cc1 (stereo not shown) [Compound 37] | ≥ 95% |  | ≥ 85% | 2.92 | 4.16 |  |
| COC(=O)Nc1ccc(Br)cc1 [III-1, methyl 4-bromophenylcarbamate] |  |  |  | 2.27 |  |  |
| CCCOC(=O)Nc1ccc(Br)cc1 [III-2, n-propyl 4-bromophenylcarbamate] |  |  |  | 3.12 |  |  |
| CCCCOC(=O)N(C)c1ccc(Br)cc1 [III-3, n-butyl-4-bromophenyl(methyl)carbamate] |  |  |  | 3.88 |  |  |
| O=C1OCCN1c1ccc(Br)cc1 [III-4, 3-(4-bromophenyl)-1,3-oxazolidin-2-one] |  |  |  |  |  | chromatographic logP [4, 12]: 2.02 |
| O=C(Nc1ccc(Br)cc1)N1CCOCC1 [III-5, N-(4-bromophenyl)-4-morpholinecarboxamide] |  |  |  |  |  | chromatographic logP [4, 12]: 1.75 |
| Nc1ccc(-c2ccc(C3CCC(c4c(F)cccc4F)=N3)cc2)cc1 (stereo not shown) [VII-1, 4′-[5-(2,6-difluorophenyl)-3,4-dihydro-2H-pyrrol-2-yl]-1 ′-biphenyl-4-amine] |  |  |  |  |  | chromatographic logP [4, 12]: 1.25 |
